Results published in ChEMBL document CHEMBL1201862, “PubChem BioAssay data set” (2004).
Activity calls are given as the source filed them.

Experiments:
[1] = target: T1, High affinity choline transporter 1 (Homo sapiens, UniProt Q9GZV3); experiment: CHT inhibitors, dose response, cell-based, 5-point CRC, membrane potential dye (AID 504840); assay type: functional
T1 sequence (Q9GZV3 whole entry): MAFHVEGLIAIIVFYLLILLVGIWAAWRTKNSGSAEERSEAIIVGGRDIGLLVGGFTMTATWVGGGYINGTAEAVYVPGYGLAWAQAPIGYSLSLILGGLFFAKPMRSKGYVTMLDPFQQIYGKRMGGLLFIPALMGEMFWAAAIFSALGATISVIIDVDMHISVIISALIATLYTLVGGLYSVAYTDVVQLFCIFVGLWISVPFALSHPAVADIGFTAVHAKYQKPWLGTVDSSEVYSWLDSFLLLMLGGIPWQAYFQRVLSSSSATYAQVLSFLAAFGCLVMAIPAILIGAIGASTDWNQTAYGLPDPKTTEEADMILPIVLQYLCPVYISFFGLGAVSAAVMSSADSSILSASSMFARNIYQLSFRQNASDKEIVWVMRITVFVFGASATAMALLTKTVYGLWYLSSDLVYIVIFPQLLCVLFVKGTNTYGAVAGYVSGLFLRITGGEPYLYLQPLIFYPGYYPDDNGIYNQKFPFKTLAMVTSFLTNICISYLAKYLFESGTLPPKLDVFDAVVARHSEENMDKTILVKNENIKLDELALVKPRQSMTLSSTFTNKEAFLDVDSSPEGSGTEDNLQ

[2] = target: T1, High affinity choline transporter 1; experiment: CHT inhibitors, dose response, cell-based, 10-point CRC, membrane potential dye (AID 588401); assay type: functional;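 further: membrane potential dye fluorescence of choline-evoked depolarization via CHT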
[3] = intracellular Trypanosoma cruzi inhibitors in host cells – cell-based, plate reader, cherry-pick samples, set 3, dose response (AID 651818); assay type: functional;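 further: compounds incubated with infected cells for about four days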
[4] = target: Photoreceptor-specific nuclear receptor (Homo sapiens, UniProt Q9Y5X4); assay type: functional, cell-based;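 further: CHO-S cells with Gal4-NCOR and VP16-NR2E3 two-hybrid luciferase reporter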
Major prion protein = Major prion protein (Homo sapiens, UniProt P04156); assay type: functional, cell-based
INS1 = experiment: beta cell apoptosis inhibitors, cytokine rescue, dose response, luminescence, retest (AID 449756); assay type: functional, cell-based; conditions: Rattus norvegicus;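 further: cell death triggered by IL-1 beta plus TNF-alpha plus IFN-gamma mixture; protective hits raise ATP signal compared with cytokine alone wells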
Beta-lactamase [5] = target: Beta-lactamase (Salmonella choleraesuis (strain SC-B67), UniProt Q5J463)
Beta-lactamase [6] = target: Beta-lactamase (Pseudomonas aeruginosa, UniProt Q79MP6);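 further: biochemical dose-response test of metallo-beta-lactamase enzyme inhibition, read out by epi-absorbance; purified recombinant IMP-1 metallo-beta-lactamase with nitrocefin as substrate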
[7] = target: T2, Small ubiquitin-related modifier 1 (Homo sapiens, UniProt P63165); experiment: inhibitors of SUMO1 partner interactions, dose response, biochemical, FRET (AID 624383); assay type: functional; conditions: read-out: IC50_Mean
[8] = target: T2, Small ubiquitin-related modifier 1; experiment: inhibitors of SUMO1 peptide binding, dose response, biochemical, fluorescence polarization, uHTS hits (AID 624382); assay type: functional; conditions: read-out: IC50_Mean
[9] = target: 5-hydroxytryptamine receptor 2A (Mus musculus, UniProt P35363); assay type: functional, cell-based;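 further: CHO-K1 cells with tagged receptor and beta-arrestin; agonist potency measured as compound-induced activation of the receptor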
Mu-type opioid receptor = Mu-type opioid receptor (Homo sapiens, UniProt P35372); assay type: functional, cell-based;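 further: U2OS cells with beta-arrestin recruitment to OPRM1 by beta-gal complementation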
[10] = miR-122 activators in hepatoma reporter cells, dose response, cell-based, Huh7 psiCHECK-miR122, Renilla luciferase, cherry-picked (AID 651956); assay type: functional;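 further: huh7 hepatoma cells stably carrying a psiCHECK-2 miR-122 sensor plasmid; renilla luciferase signal reporting endogenous miR-122 activity after 48 h compound exposure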
Cytochrome P450 2C9 = Cytochrome P450 2C9 (Homo sapiens, UniProt P11712)
[11] = target: T3, ATP-dependent translocase ABCB1 (Homo sapiens, UniProt P08183); experiment: ABCG2 efflux pump inhibitor potency, dose response, Ig-MXP3 cells, JC-1, flow cytometry, set 2 (AID 504566); assay type: functional; conditions: read-out: EC50_MICROM_;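 further: flow cytometry median green fluorescence of retained JC-1 dye; potency of efflux pump inhibition measured as rising substrate retention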
[12] = target: T3, ATP-dependent translocase ABCB1; experiment: ABCB1 efflux inhibitor potency, dose response, Jurkat-DNR cells, JC-1, flow cytometry, set 2 (AID 504569); assay type: functional; conditions: read-out: EC50_MICROM_;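 further: potency of pump inhibitors that raise cellular JC-1 green fluorescence up to the nicardipine level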
[13] = T. cruzi growth inhibition in host cells, dose response, cell-based, plate reader, dry powder, set 2 (AID 652275); assay type: functional
Genome polyprotein = Genome polyprotein (dengue virus type 2, UniProt P29990); experiment: Dengue-2 NS5 methyltransferase inhibitors, primary screen, biochemical, confirmation dose response (AID 588689); assay type: functional
[14] = target: DNA (cytosine-5)-methyltransferase 1 (Homo sapiens, UniProt P26358); experiment: DNMT1 methyltransferase inhibitors, confirmation, biochemical, fluorescent molecular beacon (AID 602386); assay type: functional
[15] = A549 cell cytotoxicity, dose response, cytotoxicity control, plate reader, cherry-pick, antagonist series (AID 743412); assay type: functional, cell-based
H9c2 = experiment: cells; assay type: functional, cell-based; conditions: Rattus norvegicus, H9c2, Myocardium
[16] = HepG2 cell cytotoxicity, dose response, cytotoxicity control, plate reader, cherry-pick, antagonist series (AID 743416); assay type: functional, cell-based
[17] = target: T4, COUP transcription factor 2 (Homo sapiens, UniProt P24468); experiment: Luminescence-based cell-based high throughput dose response assay to identify inhibitors of COUP-TFII (NR2F2).; assay type: functional;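 further: HEK293 cells transiently cotransfected with COUP-TFII expression vector and reporter; luciferase reporter luminescence driven by COUP-TFII from the pX2-168 reporter plasmid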
T4 sequence (P24468 whole entry): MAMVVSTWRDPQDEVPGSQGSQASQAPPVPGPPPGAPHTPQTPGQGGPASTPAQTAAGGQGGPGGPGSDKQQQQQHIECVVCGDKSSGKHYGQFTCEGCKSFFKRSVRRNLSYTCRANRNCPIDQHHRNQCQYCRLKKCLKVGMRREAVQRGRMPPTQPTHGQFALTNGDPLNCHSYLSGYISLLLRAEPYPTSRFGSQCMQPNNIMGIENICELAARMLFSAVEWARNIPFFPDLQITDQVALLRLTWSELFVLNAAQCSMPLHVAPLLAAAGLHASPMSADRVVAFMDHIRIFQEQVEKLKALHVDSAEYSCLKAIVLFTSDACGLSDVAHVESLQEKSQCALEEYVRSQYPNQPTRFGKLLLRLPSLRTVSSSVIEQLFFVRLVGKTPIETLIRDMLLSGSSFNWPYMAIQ

[18] = HEK293 cell cytotoxicity, dose response, cytotoxicity control, plate reader, cherry-picked samples (AID 743446); assay type: functional, cell-based
[19] = LGR2 antagonists, dose response, cell-based, HEK293, CRE-luciferase reporter, cherry pick, set 2 (AID 743343); assay type: functional;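 further: transfected cells were stimulated with diluted bursicon conditioned medium after compound addition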
[20] = MC4R antagonists, dose response, counter-screen for LGR2 antagonist project, cell-based, plate reader, cherry pick (AID 743444); assay type: functional;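 further: transfected HEK 293 cells stimulated with alpha-MSH peptide; potency of inhibitors of the alpha-MSH evoked signal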
Paired box protein Pax-8 = Paired box protein Pax-8 (Homo sapiens, UniProt Q06710); experiment: inhibitors of PAX8-driven TPO luciferase reporter, dose response, RMG-I cells, cherry-pick (AID 687027); assay type: functional, cell-based;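 further: luciferase reporter driven by Pax8 target thyroperoxidase promoter measured by SteadyGlo luminescence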
[21] = IGROV1 ovarian cancer cell cytotoxicity, dose response, PAX8 inhibitor project, plate reader, dry powder samples (AID 743043); assay type: functional, cell-based; conditions: IGROV-1
[22] = NIH:OVCAR-3 ovarian cancer cell cytotoxicity, dose response, PAX8 inhibitor project, plate reader, dry powder samples (AID 743044); assay type: functional, cell-based
[23] = cytotoxicity in OVCAR8 ovarian cancer cells, dose response, PAX8 project, cell-based, plate reader, dry powder samples (AID 743197); assay type: functional; conditions: OVCAR-8
[24] = target: T5, RNA-binding protein pos-1 (Caenorhabditis elegans, UniProt G5EF15); experiment: inhibitors of POS-1/mex-3 RNA binding, dose response, biochemical, fluorescence polarization (AID 1964);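 further: purified POS-1 fused to maltose binding protein made in E. coli; potency of compounds blocking POS-1 binding to fluorescent RNA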
T5 sequence (G5EF15 whole entry): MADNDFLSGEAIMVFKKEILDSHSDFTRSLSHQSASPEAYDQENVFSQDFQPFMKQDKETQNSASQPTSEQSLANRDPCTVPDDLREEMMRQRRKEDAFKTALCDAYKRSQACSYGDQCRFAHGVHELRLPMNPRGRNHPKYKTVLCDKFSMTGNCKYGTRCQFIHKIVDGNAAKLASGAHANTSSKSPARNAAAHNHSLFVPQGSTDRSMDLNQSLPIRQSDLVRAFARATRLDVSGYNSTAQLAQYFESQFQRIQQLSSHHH

[25] = target: T6, Zinc finger protein mex-5 (Caenorhabditis elegans, UniProt Q9XUB2); experiment: MEX-5/TCR-2 RNA interaction inhibitors, dose response, biochemical, C. elegans, fluorescence polarization (AID 1960)
T6 sequence (Q9XUB2 whole entry): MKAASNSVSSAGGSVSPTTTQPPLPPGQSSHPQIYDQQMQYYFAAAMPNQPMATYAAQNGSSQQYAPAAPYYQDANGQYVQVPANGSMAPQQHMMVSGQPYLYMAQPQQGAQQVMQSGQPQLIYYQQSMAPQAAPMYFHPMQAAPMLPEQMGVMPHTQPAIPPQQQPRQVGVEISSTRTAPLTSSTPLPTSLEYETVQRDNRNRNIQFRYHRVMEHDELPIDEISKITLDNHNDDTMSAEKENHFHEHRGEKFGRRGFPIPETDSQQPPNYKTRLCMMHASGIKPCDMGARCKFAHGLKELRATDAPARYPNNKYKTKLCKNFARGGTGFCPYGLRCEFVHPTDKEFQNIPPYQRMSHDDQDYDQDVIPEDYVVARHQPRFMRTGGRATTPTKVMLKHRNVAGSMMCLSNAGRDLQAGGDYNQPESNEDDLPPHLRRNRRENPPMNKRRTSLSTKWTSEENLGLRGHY

[26] = target: T7, Probable nicotinate-nucleotide adenylyltransferase (Staphylococcus aureus (strain N315), UniProt P65502); assay type: functional, Staphylococcus aureus subsp. aureus N315;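 on IC50 Mean: confirmatory dose-response retesting of NadD inhibitor hits first found in an ultra-high-throughput screen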
[27] = target: T7, Probable nicotinate-nucleotide adenylyltransferase; assay type: functional, Staphylococcus aureus subsp. aureus N315; conditions: read-out: IC50_Mean
[28] = target: T8, Carboxy-terminal domain RNA polymerase II polypeptide A small phosphatase 1 (Homo sapiens, UniProt Q9GZU7); experiment: inhibitors of CTDSP1, concentration-response testing, biochemical assay, absorbance-based, actives from ultra-high-throughput screening (AID 540297); assay type: functional
T8 sequence (Q9GZU7 whole entry): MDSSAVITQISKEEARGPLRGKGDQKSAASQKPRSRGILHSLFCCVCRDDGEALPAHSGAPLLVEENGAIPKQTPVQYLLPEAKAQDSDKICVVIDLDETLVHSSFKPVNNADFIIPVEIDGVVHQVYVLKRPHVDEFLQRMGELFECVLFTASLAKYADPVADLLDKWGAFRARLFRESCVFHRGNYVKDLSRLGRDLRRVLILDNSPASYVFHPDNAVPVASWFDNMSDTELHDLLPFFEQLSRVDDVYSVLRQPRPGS

## NC(=O)CC(NC(=O)c1ccccc1)c1ccc(N2CCCCCCC2)c([N+](=O)[O-])c1 (stereo not drawn)
[1]
  IC50: 6.41 µM (active)
[2]
  IC50: 6.21 µM (active)

## C[C@@H]1CCCCO[C@@H](CN(C)Cc2ccc(C(F)(F)F)cc2)[C@@H](C)CN([C@H](C)CO)C(=O)c2cc(NC(=O)Nc3ccc(C(F)(F)F)cc3)ccc2O1
[3]
  AC50: 3.49 µM (active)

## Cc1ccc(-c2nc(NC(=O)CSc3nnnn3-c3ccccc3)ns2)cc1
[4]
  IC50: 1.06 µM (active)

## COc1cccc(-c2cc3c(=O)n(-c4ccccc4)c(=S)[nH]c3s2)c1
cells
  IC50: > 138 µM (inactive)
Major prion protein
  IC50: 6.34 µM (active)

## O=[N+]([O-])c1ccc(NC(S)=NCCc2ccc(F)cc2)cc1
INS1
  AC50: 6.89 µM (active)
[4]
  IC50: 5.06 µM (active)

## Cc1nn(-c2ccccc2)c(Cl)c1/C=C(\CC(=O)O)c1nc2ccccc2s1
Beta-lactamase [5]
  IC50: > 59.6 µM (inactive)
Beta-lactamase [6]
  IC50: > 59.6 µM (inactive)

## COc1ccc(OC)c(Nc2nc3ccccc3n3cnnc23)c1
[7]
  IC50: 19.2 µM (active)
[8]
  IC50: > 66.6 µM (inactive)

## CCCN(CCC)C1CCc2ccc(O)cc2C1 (stereo not drawn)
[9]
  EC50: 0.0038 µM (active)
Mu-type opioid receptor
  EC50: 92.4 µM (inactive)

## CNC(=O)C[C@H]1CC[C@@H]2[C@H](COc3ccc(NC(=O)Nc4ccccc4OC)cc3C(=O)N2C)O1
[10]
  AC50: 23.1 µM (active)

## CC(=O)NN1C(=O)c2ccc(Oc3cccc([N+](=O)[O-])c3)cc2C1=O
[1]
  IC50: 9.92 µM (active)
[2]
  IC50: 4.5 µM (active)
Cytochrome P450 2C9
  AC50: 31.6 µM (inconclusive)

## Cc1nc2cc(-c3cccc(Cl)c3)nn2c(N2CCN(C(=O)c3ccsc3)CC2)c1C
[11]
  EC50: 0.56 µM (active)
[12]
  EC50: 4.62 µM (active)

## COC(=O)C1CCN(CC(=O)Nc2ccc3c(c2)OCCO3)CC1
[9]
  EC50: 76.1 µM (inactive)
Mu-type opioid receptor
  EC50: 92.5 µM (inactive)

## Cc1ccccc1-c1ccc([C@H]2[C@H](CO)N3CCCCN(C(=O)CN4CCOCC4)C[C@@H]23)cc1
[13]
  AC50: 0.42 µM (active)

## Nc1ccc(S(=O)(=O)Nc2nccs2)cc1N=Nc1ccccc1[N+](=O)[O-]
Genome polyprotein
  IC50: 64.7 µM (active)
[14]
  IC50: 7.09 µM (active)

## C[C@H]1CN([C@@H](C)CO)C(=O)Cc2cc(NS(=O)(=O)c3ccc(Cl)cc3)ccc2O[C@@H]1CN(C)Cc1ccc(-c2ccccc2)cc1
[3]
  AC50: 3.8 µM (active)

## COc1ccccc1-c1cc2nc(-c3ccccc3)cc(N3CCN(C(=O)c4ccco4)CC3)n2n1
[11]
  EC50: 0.94 µM (active)
[15]
  AC50: 7.34 µM (active)
H9c2
  IC50: > 79 µM (inactive)
[16]
  AC50: 2.29 µM (active)
[17]
  IC50: 4.17 µM (active)
[18]
  AC50: 7.31 µM (active)
[12]
  EC50: 3.41 µM (active)
[19]
  AC50: 6.6 µM (active)
[20]
  AC50: 6.15 µM (active)

## COc1cccc(-c2ccc3c(c2)[C@H]2[C@H](CCN2S(=O)(=O)c2ccccc2OC)[C@@H](CO)N3C)c1
Paired box protein Pax-8
  AC50: 11.1 µM (active)
[21]
  AC50: 34.3 µM (active)
[22]
  AC50: 21.6 µM (active)
[23]
  AC50: 25.4 µM (active)

## CCCCC1=CC2=CC(=O)C(C)(OC(=O)c3cccs3)C(=O)C2=CO1 (stereo not drawn)
[24]
  EC50: 35.4 µM (active)
[25]
  EC50: 30.9 µM (active)
[26]
  IC50: 10.9 µM (active)
[27]
  IC50: 34.4 µM (active)

## CCc1ccc(C(C)N=C(S)NC2CCCCC2)cc1 (stereo not drawn)
[1]
  IC50: 7.86 µM (active)
[2]
  IC50: 11.2 µM (active)

## CCOC(=O)c1c(NC(=O)COC(=O)c2ccc(NC(=O)CC#N)cc2)sc(C(=O)NC)c1C
[7]
  IC50: 6.69 µM (active)
[28]
  IC50: 3.43 µM (active)
[8]
  IC50: > 66.6 µM (inactive)
